# Target: 1-aminocyclopropane-1-carboxylate oxidase 1 (Malus domestica, UniProt Q00985)
# Assay: Inhibition Assay
# From the text: Enzyme inhibition assay using ethylene-forming enzyme (EFE).
# Sequence of 1-aminocyclopropane-1-carboxylate oxidase 1 (Q00985 whole entry): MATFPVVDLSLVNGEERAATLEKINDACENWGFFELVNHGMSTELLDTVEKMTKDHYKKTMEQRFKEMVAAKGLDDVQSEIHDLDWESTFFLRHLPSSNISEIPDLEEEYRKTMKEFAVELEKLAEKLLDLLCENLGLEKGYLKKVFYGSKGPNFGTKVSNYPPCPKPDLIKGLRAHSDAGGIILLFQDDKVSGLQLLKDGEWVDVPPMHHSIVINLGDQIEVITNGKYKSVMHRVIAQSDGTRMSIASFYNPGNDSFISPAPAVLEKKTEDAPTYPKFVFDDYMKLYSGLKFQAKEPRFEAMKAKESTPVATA
row,SMILES,Ki [µM]
1,O=C(O)C1(NO)CCC1 [N-Hydroxyaminocyclobutanecarboxylic acid],18
2,NC1(C(=O)O)CCC1 [Aminocyclobutanecarboxylic acid (ACBC)],220
3,CC(C)(N)C(=O)O [Aminoisobutyric (AIB)],150
4,CC(C)(NO)C(=O)O [N-hydroxy aminoisobutryic acid],13
